# Experimental data published in ChEMBL document CHEMBL3217706, “Identification of CYP1A2 ligands by structure-based and ligand-based virtual screening” (Medchemcomm, 2011).
# How the values were obtained:
# CYP1A2 = biological target: T1, CYP1A2 (Homo sapiens, UniProt P05177); test: Inhibition of human recombinant CYP1A2 EROD activity expressed in Escherichia coli JM109 assessed as inhibition of de-ethylation of 7-ethoxyresorufin to resorufin at 0.3 uM by spectrofluorometric analysis; format: ADME; conditions: recombinant human CYP1A2 expressed in Escherichia coli JM109, probe 7-ethoxyresorufin
# T1 sequence (P05177 whole entry): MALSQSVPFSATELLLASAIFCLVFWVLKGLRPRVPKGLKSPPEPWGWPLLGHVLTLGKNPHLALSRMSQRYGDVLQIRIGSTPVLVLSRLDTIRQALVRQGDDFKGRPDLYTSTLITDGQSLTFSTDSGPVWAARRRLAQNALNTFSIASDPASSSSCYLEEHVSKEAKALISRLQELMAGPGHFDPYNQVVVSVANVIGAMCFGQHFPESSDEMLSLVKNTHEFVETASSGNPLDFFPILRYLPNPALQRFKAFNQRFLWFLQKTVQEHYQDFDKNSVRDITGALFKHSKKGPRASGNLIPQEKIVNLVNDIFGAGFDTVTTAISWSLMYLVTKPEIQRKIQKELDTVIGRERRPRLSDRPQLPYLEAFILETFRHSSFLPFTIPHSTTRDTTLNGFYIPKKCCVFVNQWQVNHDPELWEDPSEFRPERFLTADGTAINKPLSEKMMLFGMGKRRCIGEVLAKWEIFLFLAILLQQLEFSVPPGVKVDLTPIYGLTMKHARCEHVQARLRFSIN
# Cytochrome P450 1A2 = biological target: T2, Cytochrome P450 1A2 (Homo sapiens, UniProt P05177); test: Inhibition of human recombinant CYP1A2 EROD activity expressed in Escherichia coli JM109 assessed as inhibition of de-ethylation of 7-ethoxyresorufin to resorufin by spectrofluorometric analysis; format: ADME
# T2 sequence (P05177 whole entry): T1 sequence (P05177 whole entry)
inhibition at 0.3 µM (CYP1A2) [%],IC50 (Cytochrome P450 1A2) [nM],SMILES
> 50,16,Cn1c(=O)cc2c3c(c(N)ccc31)C(=O)c1ccccc1-2
> 50,231,Cc1nn(-c2ccccc2)c2nc(C(F)(F)F)cc(C(F)(F)F)c12
> 50,112,N#CC1=C(N)Oc2c(ccc3ccccc23)C1c1ccc2c(c1)OCC2 (centres undefined)
> 50,72,COc1ccc(Nc2nc(-c3cccs3)cs2)cc1
> 50,48,C(=N\n1cnnc1)/c1ccc(-c2cccc3ccccc23)o1
> 50,22,Brc1ccc2c3c(cccc13)-c1nc3ccccc3nc1-2
> 50,57,COc1ccc(C=O)cc1COc1c(Cl)cc(Cl)cc1Cl
> 50,–,O=c1cc(-c2ccccc2)oc2c1ccc1ccccc12 [ALPHA-NAPHTHOFLAVONE]
> 50,49,CN1C(=O)/C(=C2\NC(=S)NC2=O)c2cc(Br)ccc21

SMILES,inhibition at 0.3 µM (CYP1A2) [%],IC50 (Cytochrome P450 1A2) [nM]
O=[N+]([O-])c1ccc2nc3c(nc2c1)-c1cccc2cccc-3c12,> 50,21
